Laboratory results reported in article PMC10673995, “Discovery of a novel cardiac-specific myosin modulator using artificial intelligence-based virtual screening” (Nature Communications, 2023).
Several values for one entry are separate records, joined by “and”; a condition that tells them apart may be missing. Equal values may be shown once.

Target: bovine cardiac myosin S1 (Bos taurus, UniProt Q9BE39)
Assay: mant-ATP chase single nucleotide turnover, myosin S1;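 also: 0.4 µM S1 preloaded with equimolar mant-ATP, chased by 2 mM ATP, mant fluorescence (ex 360, em 450 nm) read each second over 15 min at 25 °C, biexponential fit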
Details: for Representative Traces (mant-ATP chase, normalised signal): representative trace, sheet Figure 3a
[1] = Beta-cardiac myosin S1, individual replicates

bovine cardiac myosin S1, sequence (Q9BE39 85-778 limits assumed): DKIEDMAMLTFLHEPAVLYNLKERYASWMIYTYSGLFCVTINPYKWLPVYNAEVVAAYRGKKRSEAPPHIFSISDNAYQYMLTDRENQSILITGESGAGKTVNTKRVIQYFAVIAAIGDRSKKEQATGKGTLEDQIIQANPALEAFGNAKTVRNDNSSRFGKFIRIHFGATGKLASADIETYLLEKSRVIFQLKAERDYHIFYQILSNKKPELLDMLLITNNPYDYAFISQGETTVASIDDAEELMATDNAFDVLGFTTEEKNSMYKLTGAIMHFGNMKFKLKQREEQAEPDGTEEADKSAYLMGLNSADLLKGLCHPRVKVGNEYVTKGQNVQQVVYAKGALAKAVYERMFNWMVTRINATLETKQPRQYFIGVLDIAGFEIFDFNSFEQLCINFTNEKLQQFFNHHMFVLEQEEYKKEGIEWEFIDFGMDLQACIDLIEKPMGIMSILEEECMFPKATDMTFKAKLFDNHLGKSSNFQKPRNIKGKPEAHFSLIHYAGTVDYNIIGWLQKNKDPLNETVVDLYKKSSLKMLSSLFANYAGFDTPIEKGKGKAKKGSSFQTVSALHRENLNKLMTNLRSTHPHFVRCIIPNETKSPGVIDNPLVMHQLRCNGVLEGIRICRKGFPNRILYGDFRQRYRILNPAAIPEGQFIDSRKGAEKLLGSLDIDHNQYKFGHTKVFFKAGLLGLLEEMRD
bovine cardiac myosin S1, sequence (P85100 whole entry partner): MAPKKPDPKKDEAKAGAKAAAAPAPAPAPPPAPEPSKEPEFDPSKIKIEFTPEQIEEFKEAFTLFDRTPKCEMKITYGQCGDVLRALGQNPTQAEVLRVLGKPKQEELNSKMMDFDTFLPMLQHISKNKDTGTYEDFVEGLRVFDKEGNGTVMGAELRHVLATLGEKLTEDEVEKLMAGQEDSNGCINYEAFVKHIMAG
Text: In contrast to the isolated myosin motors, synthetic thick filaments contain two myosin head domains per molecule connected via their coiled-coil tail.
Chase of mant-ATP loaded cardiac myosin S1 with ATP leads to a decrease in the mant fluorescence intensity which is best described by a bi-exponential decay function with an initial fast phase followed by a second slower phase, corresponding to the so-called disordered (DRX) and super-relaxed state (SRX) of myosin, respectively.
Bovine myosin S1 and synthetic thick filament concentrations were adjusted to 0.4 μmol L^−1 with assay buffer and 40 μL aliquoted into individual wells of a black 384-well plate (Greiner). Mant-ATP (JenaBioscience) was added to each well to a final concentration of 0.4 μmol L^−1 using an automated injector unit in a ClarioStar Plate Reader (BMG LabTech) and the system was allowed to age for 1 min. The chase phase was started by adding a final concentration of 2 mmol L^−1 ATP using a second automated injector unit. Fluorescence intensity from each well was constantly measured for 15 min every 1 sec at 25 °C with the following settings: excitation at 360 nm with a 20 nm bandwidth and emission at 450 nm with a 20 nm bandwidth.

effect on the rate of the fast DRX phase: no effect
kslow (2 μmol L^-1 Mavacamten or 20 μmol L^-1 F10, control 0.0058 ± 0.0010): 0.0035 ± 0.0002 s⁻¹
Representative Traces, normalised fluorescence (t 396 s): 0.2925
Representative Traces, normalised fluorescence (t 397 s): 0.3426
Representative Traces, normalised fluorescence (t 398 s): 0.3062
Representative Traces, normalised fluorescence (t 399 s): 0.3254
Representative Traces, normalised fluorescence (t 400 s): 0.3408
Representative Traces, normalised fluorescence (t 401 s): 0.3177
Representative Traces, normalised fluorescence (t 402 s): 0.2999
Representative Traces, normalised fluorescence (t 403 s): 0.3192
Representative Traces, normalised fluorescence (t 404 s): 0.3277
Representative Traces, normalised fluorescence (t 405 s): 0.3461
Representative Traces, normalised fluorescence (t 406 s): 0.3076
Representative Traces, normalised fluorescence (t 407 s): 0.3064
Representative Traces, normalised fluorescence (t 408 s): 0.3235
Representative Traces, normalised fluorescence (t 409 s): 0.3324
Representative Traces, normalised fluorescence (t 411 s): 0.3126
Representative Traces, normalised fluorescence (t 412 s): 0.2865
Representative Traces, normalised fluorescence (t 413 s): 0.2993
Representative Traces, normalised fluorescence (t 414 s): 0.3256
Representative Traces, normalised fluorescence (t 415 s): 0.2791
Representative Traces, normalised fluorescence (t 416 s): 0.3071
Representative Traces, normalised fluorescence (t 417 s): 0.3285
Representative Traces, normalised fluorescence (t 418 s): 0.3567
Representative Traces, normalised fluorescence (t 419 s): 0.2951
Representative Traces, normalised fluorescence (t 420 s): 0.2958
Representative Traces, normalised fluorescence (t 421 s): 0.2771
Representative Traces, normalised fluorescence (t 422 s): 0.3283
Representative Traces, normalised fluorescence (t 423 s): 0.3329
Representative Traces, normalised fluorescence (t 424 s): 0.3402
Representative Traces, normalised fluorescence (t 425 s): 0.3675
Representative Traces, normalised fluorescence (t 426 s): 0.3241
Representative Traces, normalised fluorescence (t 427 s): 0.3018
Representative Traces, normalised fluorescence (t 429 s): 0.3105
Representative Traces, normalised fluorescence (t 430 s): 0.2835
Representative Traces, normalised fluorescence (t 431 s): 0.3652
Representative Traces, normalised fluorescence (t 432 s): 0.276
Representative Traces, normalised fluorescence (t 433 s): 0.3282
Representative Traces, normalised fluorescence (t 434 s): 0.3046
Representative Traces, normalised fluorescence (t 436 s): 0.327
Representative Traces, normalised fluorescence (t 438 s): 0.2936
Representative Traces, normalised fluorescence (t 439 s): 0.2402
Representative Traces, normalised fluorescence (t 440 s): 0.312
Representative Traces, normalised fluorescence (t 442 s): 0.3011
Representative Traces, normalised fluorescence (t 443 s): 0.3298
Representative Traces, normalised fluorescence (t 444 s): 0.251
Representative Traces, normalised fluorescence (t 445 s): 0.2991
Representative Traces, normalised fluorescence (t 448 s): 0.3473
Representative Traces, normalised fluorescence (t 449 s): 0.3057
Representative Traces, normalised fluorescence (t 450 s): 0.2886
Representative Traces, normalised fluorescence (t 451 s): 0.2859
Representative Traces, normalised fluorescence (t 452 s): 0.29
Representative Traces, normalised fluorescence (t 453 s): 0.2756
Representative Traces, normalised fluorescence (t 454 s): 0.2575
Representative Traces, normalised fluorescence (t 455 s): 0.3029
Representative Traces, normalised fluorescence (t 457 s): 0.3415
Representative Traces, normalised fluorescence (t 458 s): 0.2853
Representative Traces, normalised fluorescence (t 459 s): 0.3237
Representative Traces, normalised fluorescence (t 460 s): 0.3029
Representative Traces, normalised fluorescence (t 461 s): 0.3217
Representative Traces, normalised fluorescence (t 462 s): 0.3036
Representative Traces, normalised fluorescence (t 463 s): 0.347
Representative Traces, normalised fluorescence (t 464 s): 0.2897
Representative Traces, normalised fluorescence (t 465 s): 0.2531
Representative Traces, normalised fluorescence (t 466 s): 0.2878
Representative Traces, normalised fluorescence (t 467 s): 0.2939
Representative Traces, normalised fluorescence (t 468 s): 0.2524
Representative Traces, normalised fluorescence (t 469 s): 0.272
Representative Traces, normalised fluorescence (t 470 s): 0.2865
Representative Traces, normalised fluorescence (t 471 s): 0.2593
Representative Traces, normalised fluorescence (t 472 s): 0.2417
Representative Traces, normalised fluorescence (t 473 s): 0.3026
Representative Traces, normalised fluorescence (t 474 s): 0.305
Representative Traces, normalised fluorescence (t 475 s): 0.2893
Representative Traces, normalised fluorescence (t 476 s): 0.2207
Representative Traces, normalised fluorescence (t 477 s): 0.2579
Representative Traces, normalised fluorescence (t 479 s): 0.2507
Representative Traces, normalised fluorescence (t 481 s): 0.3039
Representative Traces, normalised fluorescence (t 482 s): 0.2976
Representative Traces, normalised fluorescence (t 483 s): 0.3557
Representative Traces, normalised fluorescence (t 484 s): 0.2911
Representative Traces, normalised fluorescence (t 485 s): 0.3282
Representative Traces, normalised fluorescence (t 486 s): 0.3063
Representative Traces, normalised fluorescence (t 487 s): 0.301
Representative Traces, normalised fluorescence (t 489 s): 0.3448
Representative Traces, normalised fluorescence (t 490 s): 0.2903
Representative Traces, normalised fluorescence (t 491 s): 0.2724
Representative Traces, normalised fluorescence (t 492 s): 0.2681
Representative Traces, normalised fluorescence (t 493 s): 0.2418
Representative Traces, normalised fluorescence (t 494 s): 0.2422
Representative Traces, normalised fluorescence (t 495 s): 0.2809
Representative Traces, normalised fluorescence (t 496 s): 0.2322
Representative Traces, normalised fluorescence (t 498 s): 0.212
Representative Traces, normalised fluorescence (t 499 s): 0.2038
Representative Traces, normalised fluorescence (t 500 s): 0.275
Representative Traces, normalised fluorescence (t 501 s): 0.2793
Representative Traces, normalised fluorescence (t 502 s): 0.2398
Representative Traces, normalised fluorescence (t 503 s): 0.2758
Representative Traces, normalised fluorescence (t 504 s): 0.2833
Representative Traces, normalised fluorescence (t 505 s): 0.2324
Representative Traces, normalised fluorescence (t 506 s): 0.2749
Representative Traces, normalised fluorescence (t 507 s): 0.3022
Representative Traces (mant-ATP chase, normalised signal) (t = 796 s): 0.1415
Representative Traces (mant-ATP chase, normalised signal) (t = 797 s): 0.08266
Structure (SMILES): CC(C)n1c(=O)cc(N[C@@H](C)c2ccccc2)[nH]c1=O [Mavacamten]
kfast [1]: 0.009858 s⁻¹ and 0.01039 s⁻¹ and 0.07197 s⁻¹ and 0.03575 s⁻¹ and 0.01101 s⁻¹ and 0.01169 s⁻¹
kslow [1]: 0.00364 s⁻¹ and 0.002861 s⁻¹ and 0.004023 s⁻¹ and 0.004095 s⁻¹ and 0.003004 s⁻¹ and 0.003638 s⁻¹
slow phase [1]: 82.01% and 63.89% and 87.3% and 56.77% and 56.99% and 79.26%
